Measured values from article PMC8151276, “An Integrated Approach toward NanoBRET Tracers for Analysis of GPCR Ligand Engagement” (Molecules, 2021).

Key:
Type in all cases: binding
[1] = biological target: T1, FZD9 (Homo sapiens, UniProt O00144); test: NanoBRET screen HiBiT-FZD9 in HEK293; conditions: FZD9
T1 construct: purchased Promega (in-house HiBiT-GPCR construct library, NanoBRET)
T1 sequence (O00144 23-591): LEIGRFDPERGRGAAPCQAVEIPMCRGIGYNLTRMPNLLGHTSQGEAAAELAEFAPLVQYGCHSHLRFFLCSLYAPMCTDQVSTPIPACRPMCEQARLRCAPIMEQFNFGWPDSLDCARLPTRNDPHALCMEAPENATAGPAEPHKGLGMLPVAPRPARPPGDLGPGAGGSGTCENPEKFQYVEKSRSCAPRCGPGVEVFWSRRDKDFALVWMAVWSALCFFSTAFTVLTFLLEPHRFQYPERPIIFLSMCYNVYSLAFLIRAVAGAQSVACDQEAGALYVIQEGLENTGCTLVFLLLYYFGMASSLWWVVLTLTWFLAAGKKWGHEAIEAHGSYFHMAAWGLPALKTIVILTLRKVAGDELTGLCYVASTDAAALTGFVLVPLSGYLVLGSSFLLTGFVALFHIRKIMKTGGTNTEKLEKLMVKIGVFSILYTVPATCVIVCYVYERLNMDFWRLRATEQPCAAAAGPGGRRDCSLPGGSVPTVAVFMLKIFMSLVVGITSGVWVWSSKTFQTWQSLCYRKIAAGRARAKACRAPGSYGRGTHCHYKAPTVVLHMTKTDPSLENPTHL
Protocol: (§1) Each tracer candidate was screened across the entire library of HiBiT-GPCR constructs using NanoBRET as the detection modality. As depicted in Figure 4A, the specificity of interactions was evaluated through decrease in BRET due to competitive displacement of a bound tracer by excess parental compound. Each tracer was analyzed for binding to each HiBiT-GPCR fusion in the absence and in the presence of competing parental compound. Briefly, HEK293 cells were transfected with HiBiT-GPCR constructs diluted into promoterless DNA to reduce expression and maximize translocation to the cell surface. Each tracer candidate was then screened at concentrations of 1 μM and 0.1 μM across cells expressing these fusions. Cells were treated for 1.5 h with tracer either alone or in the presence of 20 μM competing parental compound (i.e., control). BRET was measured upon addition of purified LgBiT and subsequent complementation with HiBiT genetically fused to a GPCR. The specificity of interactions was assessed through a decrease in BRET signal due to competitive displacement of the bound tracer. To further gauge the robustness of these interactions, the fold response over the control (i.e., BRETtracer/BRETcontrol) was calculated. We chose a 1.5-fold response, which translates to ≥7-fold signal over noise as the minimal threshold required to score an interaction as positive. […]. Below we highlight the screening results obtained for our exemplary fluorescent tracers based on Clozapine, Amitriptyline and AZD1283.
(§2) HiBiT-GPCR DNA constructs were diluted in 10 mM Tris pH 8 to a final concentration of 0.01 μg/μL, arrayed in 96-well plates and stored at −20 °C. For transfection, HEK293 cells were suspended in Opti-MEM (without phenol red) supplemented with 2% fetal bovine serum (Seradigm) and 100 units/mL penicillin–streptomycin (Gibco) at a final concentration of 220,000 cells/mL and dispensed into white 96-well plates at 90 μL/well. Subsequent transfections and screens were carried using an Agilent Bravo Automated Liquid Handling Platform. First, the 96-well HiBiT DNA arrays were diluted 25-fold in Opti-MEM (without serum or phenol red) to a final concentration of 0.0004 μg/μL and 20 μL of the diluted DNAs were transferred into new 96-well plates. Next, promoterless carrier DNA (1 μg/μL) was diluted 25-fold (0.04 μg/μL) and then dispensed into the diluted arrays at 20 μL/well. Following brief mixing, Viafect transfection reagent (Promega) diluted 16-fold into Opti-MEM was dispensed into the plates at 40 μL/well. After mixing by pipetting, plates were incubated for 10 min on the pipetting station deck. The DNA-transfection reagent complexes were then added to plates containing cells. To facilitate the screen, 10 μL of DNA-transfection reagent complexes were added in duplicates to the top 4 and bottom 4 rows, resulting in two identical 48-well arrays per plate. Plates with transfected cells were incubated for 18–20 h at 37 °C/5% CO2. A screen of each tracer across the entire library using two different concentrations requires duplicate plates of transfected cells. Depending on the number of tracers being screened, transfections can be scaled up using the same ratios. The next day, for each tracer, four 20× screening solutions in tracer dilution buffer (Promega) were prepared: two duplicates at final concentration of 20 μM and two duplicates at a final concentration of 2 μM. A competing unmodified compound was added to one of each duplicate at a final concentration of 400 μM. The four resulting solutions were diluted 4-fold in Opti-MEM without serum or phenol red to generate 5× solutions (5 µM and 0.5 µM tracer +/− 100 μM competing compound). To screen the library, a BioTek MultiFlo FX liquid dispenser was used to dispense 22.5 µL of tracer solution to the top 4 rows and 22.5 µL tracer + competing compound solution to the 4 bottom rows. Plates were briefly mixed on an orbital shaker and incubated for 1.5 h at room temperature. […]

[2] = biological target: T2, FPR2 (Homo sapiens, UniProt P25090); test: NanoBRET screen HiBiT-FPR2 in HEK293; conditions: FPR2
T2 construct: purchased Promega (in-house HiBiT-GPCR construct library, NanoBRET)
T2 sequence (P25090 1-351): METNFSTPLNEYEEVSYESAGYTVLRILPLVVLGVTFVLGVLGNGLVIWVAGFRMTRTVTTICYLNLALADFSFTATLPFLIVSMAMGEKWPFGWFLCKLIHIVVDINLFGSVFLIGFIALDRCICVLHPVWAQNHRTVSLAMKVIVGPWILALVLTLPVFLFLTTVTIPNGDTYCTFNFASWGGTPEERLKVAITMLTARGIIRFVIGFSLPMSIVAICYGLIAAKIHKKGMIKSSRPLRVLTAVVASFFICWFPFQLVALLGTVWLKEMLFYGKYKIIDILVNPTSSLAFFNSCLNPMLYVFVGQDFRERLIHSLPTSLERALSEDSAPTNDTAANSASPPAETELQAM
Protocol: as §1, §2

[3] = biological target: T3, HCRTR2 (Homo sapiens, UniProt O43614); test: NanoBRET screen HiBiT-HCRTR2 in HEK293; conditions: HCRTR2
T3 construct: purchased Promega (in-house HiBiT-GPCR construct library, NanoBRET)
T3 sequence (O43614 1-444): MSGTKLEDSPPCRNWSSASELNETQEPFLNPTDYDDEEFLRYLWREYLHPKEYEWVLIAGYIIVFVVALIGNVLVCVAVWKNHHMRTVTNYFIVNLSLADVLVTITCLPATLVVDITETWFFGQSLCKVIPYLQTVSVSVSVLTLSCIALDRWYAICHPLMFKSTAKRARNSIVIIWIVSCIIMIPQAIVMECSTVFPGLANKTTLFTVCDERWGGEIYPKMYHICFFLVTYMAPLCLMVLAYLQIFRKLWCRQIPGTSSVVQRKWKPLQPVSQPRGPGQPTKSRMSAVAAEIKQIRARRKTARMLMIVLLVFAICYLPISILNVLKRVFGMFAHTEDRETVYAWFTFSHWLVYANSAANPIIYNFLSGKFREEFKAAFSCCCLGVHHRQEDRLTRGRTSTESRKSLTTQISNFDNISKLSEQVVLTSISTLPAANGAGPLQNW
Protocol: as §1, §2

SMILES | NanoBRET Fold Response ([1]; tracer 0.1μM) | NanoBRET Fold Response ([1]; tracer 1μM) | NanoBRET Fold Response ([2]; tracer 0.1μM) | NanoBRET Fold Response ([2]; tracer 1μM) | NanoBRET Fold Response ([3]; tracer 0.1μM) | NanoBRET Fold Response ([3]; tracer 1μM) | NanoBRET Fold Response ([1]; 0.1μM) | NanoBRET Fold Response ([1]; 1μM) | NanoBRET Fold Response ([2]; 0.1μM) | NanoBRET Fold Response ([2]; 1μM) | NanoBRET Fold Response ([3]; 0.1μM) | NanoBRET Fold Response ([3]; 1μM)
O=C(CCc1ccc2n1[B-](F)(F)[N+]1=C(c3ccc[nH]3)C=CC1=C2)NCc1ccc(C(=O)NCCOCCC(=O)N[C@@H]2CC[C@@]3(O)[C@H]4Cc5ccc(O)c6c5[C@@]3(CCN4CC3CC3)[C@H]2O6)cc1 [Naltrexone-3-NB590] | 1.17 | 0.96 | 0.87 | 0.66 | 1.04 | 1.01 |  |  |  |  |  | 
Cc1cc2c(s1)Nc1ccccc1N=C2N1CCN(CCCNC(=O)CCOCCOCCOCCOCCNC(=O)CCc2ccc3n2[B-](F)(F)[N+]2=C(c4ccc[nH]4)C=CC2=C3)CC1 [Olanzapine-a-2-NB590] | 0.95 | 0.95 | 0.70 | 0.80 | 0.95 | 0.97 |  |  |  |  |  | 
O=C(CCc1ccc2n1[B-](F)(F)[N+]1=C(c3ccc[nH]3)C=CC1=C2)NCc1ccc(C(=O)NCCOCCOCCNCC(O)COc2cccc3ccccc23)cc1 (stereo not drawn) [Propranolol-3-NB590] |  |  |  |  |  |  | 0.98 | 1.09 | 1.02 | 1.12 | 1.09 | 1.00
O=C(CCc1ccc2n1[B-](F)(F)[N+]1=C(c3ccc[nH]3)C=CC1=C2)NCCOCCOCCNC(=O)OCCOCCN1CCN(C2=Nc3ccccc3Sc3ccccc32)CC1 [Quetiapine-a-2-NB590] | 0.84 | 0.78 | 1.06 | 0.82 | 1.01 | 0.84 |  |  |  |  |  | 
Cc1nc2n(c(=O)c1CCN1CCC(c3noc4cc(F)ccc34)CC1)CCCC2OC(=O)NCCOCCOCCOCCOCCNC(=O)CCc1ccc2n1[B-](F)(F)[N+]1=C(c3ccc[nH]3)C=CC1=C2 (stereo not drawn) [Risperidone-2-NB590] | 1.00 | 0.99 | 0.94 | 0.95 | 0.98 | 0.96 |  |  |  |  |  | 
CC(C)N(CC[C@H](c1ccccc1)c1cc(CCNC(=O)CCOCCOCCOCCOCCNC(=O)CCc2ccc3n2[B-](F)(F)[N+]2=C(c4ccc[nH]4)C=CC2=C3)ccc1O)C(C)C [Tolterodine-2-NB590] | 0.96 | 0.85 | 1.07 | 0.71 | 1.04 | 1.00 |  |  |  |  |  | 
CC(C)N(CC[C@H](c1ccccc1)c1cc(CCNC(=O)c2ccc(CNC(=O)CCc3ccc4n3[B-](F)(F)[N+]3=C(c5ccc[nH]5)C=CC3=C4)cc2)ccc1O)C(C)C [Tolterodine-BZ-NB590] | 0.95 | 1.04 | 0.95 | 0.95 | 0.91 | 1.06 |  |  |  |  |  | 
CCCn1c(=O)c2[nH]c(-c3ccc(OCC(=O)NCCNC(=O)CCOCCNC(=O)c4ccc(CNC(=O)CCc5ccc6n5[B-](F)(F)[N+]5=C(c7ccc[nH]7)C=CC5=C6)cc4)cc3)nc2n(CCC)c1=O [XAC-3-NB590] | 1.00 | 1.07 | 0.89 | 0.95 | 1.06 | 0.97 |  |  |  |  |  | 
